Reference: US20220304993A1, “CONJUGATES OF AN ELECTRON-DONATING NITROGEN OR TERTIARY AMINE […]” (Ascendis Pharma A/S, priority 2019, published 2022)

Assay: In vitro release kinetics: cleavage rate of the reversible bond from the conjugates
Assay type: physicochemical
Settings: pH 7.4, 37° C., aqueous buffer (48 mM sodium phosphate, 20% acetonitrile), disappearance of the conjugate by LCMS (UV detection), curve fitting, read-out: t1/2 (pH 7.4) (converted)
Procedure: The cleavage rate of the reversible bond from conjugates 8a-b was monitored at pH 7.4 and 37° C. in aqueous buffer (pH 7.4, 48 mM sodium phosphate, 20% acetonitrile). Disappearance of the conjugate was determined by LCMS (UV detection) and fitted with curve fitting software to obtain the half-life of the release.

SMILES	half-life [h]
CNCCCN(C)C(=O)Oc1ccc(C(C)[N+](C)(C)CCc2ccccc2)cc1 (centres unmarked) [Compound 8a]	1.3
CNCCCN(C)C(=O)Oc1ccc(C(C)[n+]2cccc3ccccc32)cc1 (centres unmarked) [Compound 8b]	1.8
